Reference: paper PMC7252619 (PLoS ONE, 2020)
Like-named read-outs stand apart in the source and are kept apart here.

Assays:
NEK2 = target: T1, NEK2 (Homo sapiens, UniProt P51955); test: Kinase activity test (ReactionBiology), % enzyme activity relative to DMSO; type: biochemical; details: NEK2;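 note: FDA-approved drugs chosen by structure-based repositioning, each screened at 10 or 1 µM for kinase activity, expressed as percent of DMSO controls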
T1 construct: purchased ReactionBiology
T1 sequence (P51955 1-445): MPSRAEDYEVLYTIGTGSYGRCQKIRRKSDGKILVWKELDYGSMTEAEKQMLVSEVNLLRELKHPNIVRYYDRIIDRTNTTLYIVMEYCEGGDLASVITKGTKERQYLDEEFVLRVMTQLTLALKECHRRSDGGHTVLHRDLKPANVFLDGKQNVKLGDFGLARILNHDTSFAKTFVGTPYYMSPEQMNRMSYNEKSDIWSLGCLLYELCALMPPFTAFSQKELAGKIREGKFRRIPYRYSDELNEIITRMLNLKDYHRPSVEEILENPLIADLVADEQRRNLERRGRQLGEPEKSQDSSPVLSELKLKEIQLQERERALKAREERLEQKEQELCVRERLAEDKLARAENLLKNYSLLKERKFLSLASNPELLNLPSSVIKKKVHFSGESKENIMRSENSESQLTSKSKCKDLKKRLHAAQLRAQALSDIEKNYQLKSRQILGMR

DAPK1 = target: T2, DAPK1 (Homo sapiens, UniProt P53355); test: as above; type: biochemical; details: DAPK1
T2 construct: purchased ReactionBiology

human CD19+ B cells = test: B-cell assay: IgG production of ODN2006-stimulated primary B cells (AlphaLISA); type: cell-based; details: Homo sapiens, B-cell, 168 h; IgG production, ODN2006 0.1 μM, 7 days; mean of 4 independent experiments; read-out: B-cell IC50
CK1d = target: T3, CK1d (Homo sapiens, UniProt P48730); test: Kinase activity test (ReactionBiology), % enzyme activity relative to DMSO; type: biochemical; details: CK1d
T3 construct: purchased ReactionBiology

VEGFR2 = VEGFR2 (Homo sapiens, UniProt P35968); test: as above; type: biochemical; set-up: purchased ReactionBiology; details: VEGFR2;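 note: VEGFR2 was one member of a ten-kinase screening panel testing marketed FDA-approved drugs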
MAP2K2 = target: T4, MAP2K2 (Homo sapiens, UniProt P36507); test: as above; type: biochemical; details: MEK2
T4 construct: purchased ReactionBiology

[1] = WST-1 cytotoxicity assay on RPMI1788 cells (B-cell line); type: cell-based, human; details: human, RPMI1788 cells (B-cell line), mean of 4 independent measures, read-out: Cytotoxicity, WST-1 RPMI 1788 IC 50 (µM) Mean
Method: (§1) Compounds were prepared as 10 mM stock solutions in dimethylsulfoxide (DMSO)and were tested at 50-10-1-0.1-0.01 and 0.001 μM in the 4 assays.
(§2) The human B cell line RPMI1788 (American Type Culture Collection, USA) and the human T cell line Jurkat (European Collection of Cell Cultures, ECACC, England) were maintained in RPMI1640 culture medium (BioWhittaker®, Lonza, Verviers, Belgium) containing 10% foetal calf serum (FCS, HyClone® Thermo Scientific, United Kingdom) and 5 μg/mL gentamicin sulphate (BioWhittaker®, Lonza, Verviers, Belgium) at 37°C and 5% CO2.
(§3) WST-1 assays on RPMI-1788 cells and Jurkat cells were performed as follows: 20 μL of test compound dilution were added to each well containing exponential growing cells and the plates were incubated for 48 h at 37°C, 5% CO2. Untreated cells and positive control (1% triton X-100, for the last 15 min) served as reference for maximum and minimum viability. At the end of incubation 100 μL of supernatant were removed and replaced by 10 μL of WST-1 solution (Cell Proliferation Reagent WST-1, Roche Applied Science).

[2] = test system: human PBMCs (responder cells) with RPMI1788 stimulator cells; test: Mixed Lymphocyte Reaction (MLR, T cell assay), 3H-thymidine incorporation; type: cell-based; details: Homo sapiens, RPMI-1788; mean of 4 independent measures; read-out: T-cell efficacy, MLR IC 50 (µM) Mean
Method: In order to test the efficacy and selectivity of the hit compounds on B-cells, 4 assays were performed: B-cell assay, Mixed Lymphocyte Reaction (MLR), WST-1 assay on RPMI1788 cells (B-cell line) and cytotoxicity WST-1 assay on Jurkat cells (T-cell line). Compounds were prepared as 10 mM stock solutions in dimethylsulfoxide (DMSO)and were tested at 50-10-1-0.1-0.01 and 0.001 μM in the 4 assays.
Blood samples of healthy volunteers were collected at the Red Cross of Mechelen, Belgium. Each donor consents to the use of their blood for research purposes. […] The human B cell line RPMI1788 (American Type Culture Collection, USA) and the human T cell line Jurkat (European Collection of Cell Cultures, ECACC, England) were maintained in RPMI1640 culture medium (BioWhittaker®, Lonza, Verviers, Belgium) containing 10% foetal calf serum (FCS, HyClone® Thermo Scientific, United Kingdom) and 5 μg/mL gentamicin sulphate (BioWhittaker®, Lonza, Verviers, Belgium) at 37°C and 5% CO2.
MLR assay (T cell assay): Freshly isolated human PBMCs (responder cells) were resuspended in RPMI1640 medium containing 10% FCS and 5nμg/mL gentamicin sulphate. RPMI1788 cells (stimulator cells) were inactivated by treatment with mitomycin C (Kyowa®, Takeda Belgium, Brussels, Belgium) for 20 min at 37°C, washed and finally suspended in culture medium. An amount of 100 μL of each cell suspension was mixed with 20 μL of diluted compound. The mixed cells were cultured at 37°C for 6 days in 5% CO2. DNA synthesis was assayed by the addition of 10 μCi (methyl-3H) thymidine (Perkin Elmer, Zaventem, Belgium) per well during the last 18 h in culture. Thereafter, the cells were harvested on glass filter paper and the counts per minute determined in a liquid scintillation counter (TopCount, Perkin Elmer, Zaventem, Belgium).

[3] = WST-1 cytotoxicity assay on Jurkat cells (T-cell line); type: cell-based, human; details: human, Jurkat cells (T-cell line), mean of 4 independent measures, read-out: Cytotoxicity, WST-1 Jurkat IC 50 (µM) Mean
Method: as §1, §2, §3

EPHB4 = target: T5, EPHB4 (Homo sapiens, UniProt P54760); test: Kinase activity test (ReactionBiology), % enzyme activity relative to DMSO; type: biochemical; details: EPHB4;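 note: EPHB4 was one of ten selected kinases in the screening panel, with enzyme activity expressed as a percentage of DMSO controls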
T5 construct: purchased ReactionBiology
T5 sequence (P54760 16-987): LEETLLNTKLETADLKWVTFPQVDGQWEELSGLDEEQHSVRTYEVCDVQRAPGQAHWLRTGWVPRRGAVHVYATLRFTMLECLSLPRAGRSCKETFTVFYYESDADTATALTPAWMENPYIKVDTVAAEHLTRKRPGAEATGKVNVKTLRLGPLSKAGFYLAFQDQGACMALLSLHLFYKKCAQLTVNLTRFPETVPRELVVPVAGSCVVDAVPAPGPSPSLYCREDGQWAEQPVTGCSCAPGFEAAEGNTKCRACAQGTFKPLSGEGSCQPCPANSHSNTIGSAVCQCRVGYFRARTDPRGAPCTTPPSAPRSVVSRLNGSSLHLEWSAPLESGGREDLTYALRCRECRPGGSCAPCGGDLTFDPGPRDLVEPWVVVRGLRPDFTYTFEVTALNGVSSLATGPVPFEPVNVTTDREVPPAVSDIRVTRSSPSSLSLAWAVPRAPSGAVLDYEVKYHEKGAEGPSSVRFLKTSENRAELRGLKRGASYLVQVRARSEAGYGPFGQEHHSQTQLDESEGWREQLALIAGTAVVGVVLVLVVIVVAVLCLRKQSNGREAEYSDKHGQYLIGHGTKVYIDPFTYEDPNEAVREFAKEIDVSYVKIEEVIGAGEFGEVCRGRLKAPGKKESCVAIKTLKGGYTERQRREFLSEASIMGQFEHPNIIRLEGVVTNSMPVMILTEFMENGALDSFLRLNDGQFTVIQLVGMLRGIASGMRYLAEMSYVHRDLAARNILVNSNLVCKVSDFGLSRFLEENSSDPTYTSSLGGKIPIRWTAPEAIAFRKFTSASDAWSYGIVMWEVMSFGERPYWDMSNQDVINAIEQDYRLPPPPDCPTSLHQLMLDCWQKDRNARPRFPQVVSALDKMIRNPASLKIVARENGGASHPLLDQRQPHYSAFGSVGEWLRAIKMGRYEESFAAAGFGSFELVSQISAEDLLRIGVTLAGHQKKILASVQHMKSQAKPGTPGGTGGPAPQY

[4] = 1 uM, Average, read-out: % Enzyme Activity (relative to DMSO controls), Average
[5] = 1 uM, replicate Data 1, read-out: % Enzyme Activity (relative to DMSO controls), Data 1
[6] = 1 uM, replicate Data 2, read-out: % Enzyme Activity (relative to DMSO controls), Data 2
[7] = 10 uM, Average, read-out: % Enzyme Activity (relative to DMSO controls), Average
[8] = 10 uM, replicate Data 1, read-out: % Enzyme Activity (relative to DMSO controls), Data 1
[9] = 10 uM, replicate Data 2, read-out: % Enzyme Activity (relative to DMSO controls), Data 2
[10] = compound 1μM, relative to DMSO controls, read-out: % Enzyme activity at 1μM
[11] = compound 10μM, relative to DMSO controls, read-out: % Enzyme activity at 10μM
[12] = Average, read-out: % Enzyme Activity (relative to DMSO controls), Average
[13] = replicate Data 1, read-out: % Enzyme Activity (relative to DMSO controls), Data 1
[14] = replicate Data 2, read-out: % Enzyme Activity (relative to DMSO controls), Data 2

Chain of VEGFR2 (P35968 20-1356): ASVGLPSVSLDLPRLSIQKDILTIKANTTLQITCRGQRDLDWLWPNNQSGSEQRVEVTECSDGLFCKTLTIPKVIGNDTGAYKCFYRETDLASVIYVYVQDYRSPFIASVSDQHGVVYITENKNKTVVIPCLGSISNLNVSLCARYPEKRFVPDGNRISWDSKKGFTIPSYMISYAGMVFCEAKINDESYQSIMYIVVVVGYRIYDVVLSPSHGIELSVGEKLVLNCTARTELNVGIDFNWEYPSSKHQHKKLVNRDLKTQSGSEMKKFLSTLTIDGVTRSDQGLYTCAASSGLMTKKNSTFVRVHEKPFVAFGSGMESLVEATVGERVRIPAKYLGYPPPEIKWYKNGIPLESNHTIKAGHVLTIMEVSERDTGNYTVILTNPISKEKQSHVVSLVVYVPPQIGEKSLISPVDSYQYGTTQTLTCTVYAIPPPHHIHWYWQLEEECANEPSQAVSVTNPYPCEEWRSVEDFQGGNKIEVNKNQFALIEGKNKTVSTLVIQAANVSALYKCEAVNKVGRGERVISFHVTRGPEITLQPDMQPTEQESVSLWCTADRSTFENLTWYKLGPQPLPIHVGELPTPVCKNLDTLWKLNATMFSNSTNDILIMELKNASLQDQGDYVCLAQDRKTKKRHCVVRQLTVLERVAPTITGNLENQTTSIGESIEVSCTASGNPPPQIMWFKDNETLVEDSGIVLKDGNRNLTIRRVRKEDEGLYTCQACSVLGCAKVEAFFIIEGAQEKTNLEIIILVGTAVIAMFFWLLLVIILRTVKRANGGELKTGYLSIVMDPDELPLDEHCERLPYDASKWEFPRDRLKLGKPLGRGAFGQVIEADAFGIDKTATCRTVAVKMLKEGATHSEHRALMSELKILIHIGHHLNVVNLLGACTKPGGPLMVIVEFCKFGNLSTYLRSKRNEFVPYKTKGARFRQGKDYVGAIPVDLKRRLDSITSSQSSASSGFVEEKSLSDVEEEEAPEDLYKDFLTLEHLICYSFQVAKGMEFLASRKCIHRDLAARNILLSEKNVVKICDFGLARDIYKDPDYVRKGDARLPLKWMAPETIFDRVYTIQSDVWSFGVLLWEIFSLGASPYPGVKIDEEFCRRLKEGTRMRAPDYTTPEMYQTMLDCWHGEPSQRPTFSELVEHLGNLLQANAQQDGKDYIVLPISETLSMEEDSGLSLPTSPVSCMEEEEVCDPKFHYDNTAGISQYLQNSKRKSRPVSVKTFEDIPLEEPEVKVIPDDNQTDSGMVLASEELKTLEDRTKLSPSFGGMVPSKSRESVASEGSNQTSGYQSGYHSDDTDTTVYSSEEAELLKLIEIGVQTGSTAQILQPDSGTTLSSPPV
T3 sequence (P48730 whole entry): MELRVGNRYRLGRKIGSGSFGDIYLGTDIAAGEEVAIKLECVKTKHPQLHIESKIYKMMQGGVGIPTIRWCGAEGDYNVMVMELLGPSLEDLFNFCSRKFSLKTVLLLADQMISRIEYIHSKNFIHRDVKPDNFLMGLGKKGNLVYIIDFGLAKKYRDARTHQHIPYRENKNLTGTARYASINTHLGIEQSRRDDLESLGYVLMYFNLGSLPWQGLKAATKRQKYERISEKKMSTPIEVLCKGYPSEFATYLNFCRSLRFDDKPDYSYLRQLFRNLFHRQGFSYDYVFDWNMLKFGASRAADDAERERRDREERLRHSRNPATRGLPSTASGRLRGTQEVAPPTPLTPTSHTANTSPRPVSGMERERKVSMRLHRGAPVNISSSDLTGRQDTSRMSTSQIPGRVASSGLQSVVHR
T4 sequence (P36507 whole entry): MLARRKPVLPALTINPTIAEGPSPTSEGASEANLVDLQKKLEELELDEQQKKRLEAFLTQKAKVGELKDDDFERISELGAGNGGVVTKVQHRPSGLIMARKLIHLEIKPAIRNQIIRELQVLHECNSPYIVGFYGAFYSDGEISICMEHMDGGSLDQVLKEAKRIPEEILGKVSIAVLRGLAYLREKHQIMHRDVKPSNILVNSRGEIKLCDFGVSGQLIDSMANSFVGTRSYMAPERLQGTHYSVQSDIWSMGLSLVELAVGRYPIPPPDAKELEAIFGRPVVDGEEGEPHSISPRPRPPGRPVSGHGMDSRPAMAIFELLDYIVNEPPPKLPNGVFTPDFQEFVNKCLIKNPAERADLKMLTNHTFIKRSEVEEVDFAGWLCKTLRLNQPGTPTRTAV
T2 sequence (P53355 whole entry): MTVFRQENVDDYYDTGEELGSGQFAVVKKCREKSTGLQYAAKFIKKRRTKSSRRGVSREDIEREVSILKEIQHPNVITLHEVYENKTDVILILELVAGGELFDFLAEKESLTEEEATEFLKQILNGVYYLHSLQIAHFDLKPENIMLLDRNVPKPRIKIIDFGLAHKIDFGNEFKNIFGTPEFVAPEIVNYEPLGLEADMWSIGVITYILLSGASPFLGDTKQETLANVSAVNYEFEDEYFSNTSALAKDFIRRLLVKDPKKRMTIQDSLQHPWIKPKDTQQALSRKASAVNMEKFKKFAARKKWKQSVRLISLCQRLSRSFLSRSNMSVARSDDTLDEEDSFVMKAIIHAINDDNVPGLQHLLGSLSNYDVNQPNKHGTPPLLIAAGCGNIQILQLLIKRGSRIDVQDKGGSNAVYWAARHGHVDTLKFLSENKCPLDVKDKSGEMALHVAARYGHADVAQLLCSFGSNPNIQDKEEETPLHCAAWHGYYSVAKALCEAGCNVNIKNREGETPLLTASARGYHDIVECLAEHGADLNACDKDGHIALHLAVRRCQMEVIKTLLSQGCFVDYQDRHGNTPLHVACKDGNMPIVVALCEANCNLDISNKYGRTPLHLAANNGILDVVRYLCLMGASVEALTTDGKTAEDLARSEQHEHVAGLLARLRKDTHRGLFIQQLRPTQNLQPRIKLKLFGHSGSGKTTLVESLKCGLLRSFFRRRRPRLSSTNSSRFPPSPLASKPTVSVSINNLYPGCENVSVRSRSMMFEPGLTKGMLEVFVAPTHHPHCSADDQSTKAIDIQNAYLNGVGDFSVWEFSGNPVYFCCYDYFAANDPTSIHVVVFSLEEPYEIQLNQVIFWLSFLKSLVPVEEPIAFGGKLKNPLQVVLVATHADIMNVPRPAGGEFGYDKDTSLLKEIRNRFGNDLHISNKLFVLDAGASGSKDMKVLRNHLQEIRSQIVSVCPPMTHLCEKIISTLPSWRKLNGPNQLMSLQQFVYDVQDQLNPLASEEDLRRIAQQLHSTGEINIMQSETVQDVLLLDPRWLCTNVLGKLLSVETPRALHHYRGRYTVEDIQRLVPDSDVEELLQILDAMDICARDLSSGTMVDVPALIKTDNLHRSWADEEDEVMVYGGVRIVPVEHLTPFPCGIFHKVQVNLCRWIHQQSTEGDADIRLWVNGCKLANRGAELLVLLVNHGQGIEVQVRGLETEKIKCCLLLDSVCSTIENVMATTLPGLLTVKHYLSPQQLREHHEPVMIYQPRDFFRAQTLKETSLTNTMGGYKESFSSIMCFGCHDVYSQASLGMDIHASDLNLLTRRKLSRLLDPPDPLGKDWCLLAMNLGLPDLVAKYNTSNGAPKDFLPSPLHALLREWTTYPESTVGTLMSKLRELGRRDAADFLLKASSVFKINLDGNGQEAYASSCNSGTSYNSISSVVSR

remaining activity at 1 µM (NEK2; [4]): 79.9%
remaining activity at 1 µM (NEK2; [5]): 73.6%
remaining activity at 1 µM (NEK2; [6]): 86.1%
remaining activity at 10 µM (NEK2; [7]): 71.7%
remaining activity at 10 µM (NEK2; [8]): 77.2%
remaining activity at 10 µM (NEK2; [9]): 66.2%
remaining activity at 1 µM (NEK2; [10]): 96.1%
remaining activity at 10 µM (NEK2; [11]): 59%
remaining activity at 1 µM (DAPK1; [12]): 99.3%
remaining activity at 1 µM (DAPK1; [13]): 103%
remaining activity at 1 µM (DAPK1; [14]): 95.9%
remaining activity at 10 µM (DAPK1; [12]): 81.1%
remaining activity at 10 µM (DAPK1; [13]): 80.8%
remaining activity at 10 µM (DAPK1; [14]): 81.4%
IC50 (human CD19+ B cells): > 50 µM
remaining activity at 1 µM (CK1d; [4]): 87.7%
remaining activity at 1 µM (CK1d; [5]): 86.5%
remaining activity at 1 µM (CK1d; [6]): 88.9%
remaining activity at 10 µM (CK1d; [7]): 50.2%
remaining activity at 10 µM (CK1d; [8]): 51.1%
remaining activity at 10 µM (CK1d; [9]): 49.4%
remaining activity at 1 µM (CK1d; [10]): 87.7%
remaining activity at 10 µM (CK1d; [11]): 50.2%
remaining activity at 1 µM (VEGFR2; [12]): 111%
remaining activity at 1 µM (VEGFR2; [13]): 111%
remaining activity at 1 µM (VEGFR2; [14]): 111%
remaining activity at 10 µM (VEGFR2; [12]): 98.3%
remaining activity at 10 µM (VEGFR2; [13]): 98.4%
remaining activity at 10 µM (VEGFR2; [14]): 98.2%
remaining activity at 1 µM (MAP2K2; [12]): 96.1%
remaining activity at 1 µM (MAP2K2; [13]): 96.6%
remaining activity at 1 µM (MAP2K2; [14]): 95.7%
remaining activity at 10 µM (MAP2K2; [12]): 59%
remaining activity at 10 µM (MAP2K2; [13]): 60.6%
remaining activity at 10 µM (MAP2K2; [14]): 57.4%
remaining activity at 1 µM (EPHB4; [12]): 101%
remaining activity at 1 µM (EPHB4; [13]): 100%
remaining activity at 1 µM (EPHB4; [14]): 102%
remaining activity at 10 µM (EPHB4; [12]): 85.4%
remaining activity at 10 µM (EPHB4; [13]): 84.1%
remaining activity at 10 µM (EPHB4; [14]): 86.8%
SMILES: Nc1ncnc2c1ncn2[C@@H]1O[C@H](CO)[C@@H](O)[C@H]1O [Adenosine, reference compound]
IC50 at 48 h [1]: > 50 µM
IC50 [2]: > 50 µM
IC50 at 48 h [3]: > 50 µM
